Assay results from patent publication US20070036843A1, “Non-ionic non-aqueous vehicles for topical and oral administration of carrier-complexed active agents” (Collegium Pharmaceutical, Inc., priority 2005, published 2007).

Assay: Release of albuterol from resinate in various vehicles (membrane-bottomed insert over wells of aqueous solution, simulating topical application to skin)
Assay type: physicochemical
Conditions: room temperature, sampled 0.5, 1, 2 and 4 hours
Procedure: Albuterol was detected by HPLC on a Waters “Resolve” 5 micron spherical C18 resin column, with a mobile phase of 70% buffer and 30% methanol. Buffer was 4.4 g 1-heptane sulfonic acid in 100 g DI water, adjusted to pH 3.2±0.1 with glacial acetic acid. Albuterol extraction solvent was 10% v/v 0.5 M Na Acetate in ethanol. A stock solution of 0.5 mg albuterol/ml extraction buffer was diluted with 25 volumes of “diluent” (30:70 methanol:DI water, v:v) at the time of use. Samples were extracted to determine albuterol content by transferring 200 mg albuterol resin to a 250 ml flask, using extraction solvent; bringing the volume to about 220 ml of extraction solvent; shaking overnight at room temperature; adding extraction solvent to 250 ml; filtering an aliquot; and diluting filtered solution with 24 volumes of diluent. This solution was analyzed by HPLC, and the amount was determined by comparison with a chromatogram of the standard.
A system was developed to simulate the effects of topical application of a resin-bound drug in a vehicle to skin. […]
The experimental design allowed the pores of the membrane to fill with the aqueous solution. […] Wells were sampled at various times and the fluid was analyzed for albuterol. […]
7.5 g phosphate buffer (pH 6.8; 0.05 M) was added to each well. […] The inserts were removed, and the fluid in the wells (12 in all) was analyzed for albuterol by HPLC. […]

For CC(C)(C)NCC(O)c1ccc(O)c(CO)c1 (centres unmarked) [albuterol, Albuterol], the Release of albuterol (albuterol resinate directly in ionic aqueous solution (phosphate buffer pH 6.8, 0.05 M), no vehicle, compared with NINA vehicles) was “fastest” and the Release of albuterol (albuterol resinate in hydrophobic castor oil/colloidal silica (2.5%) vehicle without surfactant, phosphate buffer pH 6.8 in well) was “not detectable”.
